# Reference: US7078414B2, “Derivatives of 3-guanidinocarbonyl-1-heteroaryl-pyrrole, preparation process and intermediates of this process, their use as medicaments, and pharmaceutical compositions comprising them” (Sanofi-Aventis Deutschland GmbH, priority 2002, dated 2006)
# Structures can show the parent of a compound that is named as a salt.
# Key:
# NHE-1 subtype = molecular target: T1, NHE-1 subtype (Homo sapiens, UniProt P19634); assay: NHE inhibition FLIPR test (intracellular pH recovery, BCECF) in transfected LAP-1 cell lines expressing NHE subtypes; type: cell-based; settings: transfected LAP-1 cells expressing NHE-1 subtype, read-out: IC50 (NHE1)
# T1 construct: expressed in transfected cells; host or cells: LAP-1 cells (parental line has no endogenous NHE activity), stably transfected and kept under G418 selection
# Experimental: The NHE inhibitory activities (IC50 values) of the compounds according to the invention were determined by a FLIPR test.
# The test is performed in the FLIPR (Fluorescent Imaging Plate Reader) equipped with clear-bottomed and black-walled 96-well microtitration plates.
# The growth medium for the transfected cells (Iscove +10% foetal calf serum) also comprises G418 as selection antibiotic to ensure the presence of transfected sequences.
# The actual test begins by eliminating the growth medium and adding 100 μl of loading buffer per well (5 μM of BCECF-AM [2′,7′-bis(2-carboxyethyl)-5-(6)-carboxyfluoresceine acetoxymethyl ester] in 20 mM of NH4Cl, 115 mM of choline chloride, 1 mM of CaCl2, 5 mM of KCl, 20 mM of HEPES and 5 mM of glucose; pH 7.4 (adjusted with KOH). The cells are then incubated for 20 minutes at 37° C. This incubation results in the loading of the fluorescent dye into the cells, the fluorescence intensity of which depends on the pHi, and on the NH4Cl, which results in a slight basification of the cells.
# The precursor BCECF-AM, a non-fluorescent dye, is, as an ester, capable of crossing the membrane. The actual dye, which is incapable of crossing the membrane, is released inside the cell by esterases.
# After this 20-minute incubation, the loading buffer, which comprises NH4Cl and free BCECF-AM, is removed by washing three times in the cell washing device (Tecan Columbus), each wash being performed with 400 μL of washing buffer (133.8 mM of choline chloride, 4.7 mM of KCl, 1.25 mM of MgCl2, 1.25 mM of CaCl2, 0.97 mM of K2HPO4, 0.23 mM of KH2PO4, 5 mM of HEPES and 5 mM of glucose; pH 7.4 (adjusted with KOH)). The residual volume remaining in the wells is 90 μL (possibly between 50 and 125 μL). This washing step removes the free BCECF-AM and results in an intracellular acidification (pHi of 6.3–6.4) due to the removal of the external ammonium ions.
# As the equilibrium of the intracellular ammonium with the aqueous ammonia and the protons, by removal of the extracellular ammonium and by the subsequent immediate crossing of the aqueous ammonia across the cell membrane, is disrupted, the washing process results in intracellular protons remaining, which is the cause of the intracellular acidification. This acidification can result finally in the death of the cells if it lasts long enough. It is important here for the washing buffer to be free of sodium (<1 mM), otherwise the extracellular sodium ions would result in an immediate increase in the pHi on account of the activity of the cloned NHE isoforms. It is also important for all the buffers used (loading buffer, washing buffer and regeneration buffer) not to contain any HCO3-ions, otherwise the presence of bicarbonate would result in the activation of bicarbonate-dependent systems that disrupt the pHi regulation, which systems are contained in the LAP-1 parental cell line.
# The microtiter plates containing acidified cells are then transferred (up to 20 minutes after the acidification) to the FLIPR. In the FLIPR, the intracellular fluorescent dye is activated with light of a wavelength of 488 nm, which is generated by an argon laser, and the measuring parameters (laser power, illumination time and diaphragm of the […] camera integrated into the FLIPR) are chosen such that the average value of the f fluorescent signal per well is between 30,000 and 35,000 relative fluorescence units.
# The actual measurement in the FLIPR starts with a photograph being taken by the CCD camera every two seconds under software control. After 10 seconds, the increase in the intracellular pH is initiated by adding 90 μL of regeneration buffer (133.8 mM of NaCl, 4.7 mM of KCl, 1.25 mM of MgCl2, 1.25 mM of CaCl2, 0.97 mM of K2HPO4, 0.23 mM of KH2PO4, 10 mM of HEPES and 5 mM of glucose; pH 7.4 (adjusted with NaOH)) using a 96-well pipette device incorporated into the FLIPR.
# Some wells, to which is added pure regeneration buffer, serve as positive controls (100% NHE activity). […]
# T1 sequence (P19634 whole entry): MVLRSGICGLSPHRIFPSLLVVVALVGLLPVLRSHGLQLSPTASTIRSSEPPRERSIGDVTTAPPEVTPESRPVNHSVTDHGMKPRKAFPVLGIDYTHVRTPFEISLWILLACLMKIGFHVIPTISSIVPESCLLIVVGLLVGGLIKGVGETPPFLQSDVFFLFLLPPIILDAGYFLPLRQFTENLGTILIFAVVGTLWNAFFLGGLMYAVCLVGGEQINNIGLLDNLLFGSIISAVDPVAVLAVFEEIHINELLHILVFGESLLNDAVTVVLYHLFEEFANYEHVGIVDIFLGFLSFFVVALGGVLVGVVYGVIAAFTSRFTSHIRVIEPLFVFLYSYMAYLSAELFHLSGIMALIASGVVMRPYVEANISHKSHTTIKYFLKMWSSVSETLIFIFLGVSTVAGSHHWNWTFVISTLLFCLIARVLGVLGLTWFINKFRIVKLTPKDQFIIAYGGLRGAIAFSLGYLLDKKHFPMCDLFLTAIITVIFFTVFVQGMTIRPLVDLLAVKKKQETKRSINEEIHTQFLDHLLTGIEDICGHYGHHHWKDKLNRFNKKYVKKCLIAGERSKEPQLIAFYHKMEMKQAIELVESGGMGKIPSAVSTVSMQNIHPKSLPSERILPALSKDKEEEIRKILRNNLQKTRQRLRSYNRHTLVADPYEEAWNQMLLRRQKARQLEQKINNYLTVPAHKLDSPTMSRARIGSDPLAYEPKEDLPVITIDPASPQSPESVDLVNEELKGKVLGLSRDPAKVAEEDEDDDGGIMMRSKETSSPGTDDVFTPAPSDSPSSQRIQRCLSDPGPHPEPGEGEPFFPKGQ
SMILES,melting point,IC50 (NHE-1 subtype)
"Cl.N=C(N)NC(=O)c1cn(-c2ccnc3ccccc23)cc1C1CC1 [Example 12, 4-Cyclopropyl-3-guanidinocarbonyl-1-(quinolin-4-yl)-1H-pyrrole dihydrochloride]",185 °C,0.5 nM
"N=C(N)NC(=O)c1cn(-c2ccnc3ccccc23)cc1C(F)(F)F [Example 14, 4-Trifluoromethyl-3-guanidinocarbonyl-1-(quinolin-4-yl)-1H-pyrrole]",,2.3 nM
"Cc1c(C(=O)NC(=N)N)cn(-c2ccnc3ccccc23)c1C [Example 11, 3-Guanidinocarbonyl-4,5-dimethyl-1-(quinol-4-yl)-1H-pyrrole dihydrochloride]",,19 nM
"NC(N)=NC(=O)c1ccn(-c2ccnc3ccc(F)cc23)c1 [Example 21, N-[1-(6-Fluoro-quinolin-4-yl)-1H-pyrrole-3-carbonyl]-guanidinetrifluoroacetate]",,29 nM
"NC(N)=NC(=O)c1ccn(-c2ccnc3ccccc23)c1 [Example 2, 3-Guanidinocarbonyl-1-(quinol-4-yl)-1H-pyrrole dihydrochloride]",,22 nM
"Cc1c(C(=O)N=C(N)N)ccn1-c1ccnc2ccccc12 (as salt: hydrochloride) [Example 3, 3-Guanidinocarbonyl-2-methyl-1-(quinol-4-yl)-1H-pyrrole dihydrochloride]",240 °C,
"NC(N)=NC(=O)c1ccn(-c2ccnc3ccccc23)c1 (as salt: hydrochloride) [Example 2, 3-Guanidinocarbonyl-1-(quinol-4-yl)-1H-pyrrole dihydrochloride]",244 °C,
"Cl.NC(N)=NC(=O)c1ccn(-c2ccc3ccccc3n2)c1 [Example 1, 3-Guanidinocarbonyl-1-(quinol-2-yl)-1H-pyrrole hydrochloride]",258 °C,49 nM
"Cc1cn(-c2ccnc3c(F)cccc23)cc1C(=O)N=C(N)N [Example 22, N-[1-(8-Fluoro-quinolin-4-yl)-4-methyl-1H-pyrrole-3-carbonyl]-guanidine trifluoroacetate]",,0.2 nM
"NC(N)=NC(=O)c1ccn(-c2cnnc3ccccc23)c1 [Example 24, N-(1-Cinnolin-4-yl-1H-pyrrole-3-carbonyl)-guanidine trifluoroacetate]",,222 nM
"N=C(N)NC(=O)c1ccn(-c2cncc3ccccc23)c1 [Example 8, 3-Guanidinocarbonyl-1-(isoquinol-4-yl)-1H-pyrrole]",,121 nM
"Cc1c(C(=O)NC(=N)N)ccn1-c1ccc2ccccc2n1 (as salt: hydrochloride) [Example 4, 3-Guanidinocarbonyl-2-methyl-1-(quinol-2-yl)-1H-pyrrole hydrochloride]",250 °C,
"Cc1cc(-n2cc(C)c(C(=O)N=C(N)N)c2)c2ccccc2n1 [Example 16, N-[4-Methyl-1-(2-methyl-quinolin-4-yl)-1H-pyrrole-3-carbonyl]-guanidine trifluoroacetate]",,3.1 nM
"N=C(N)NC(=O)c1ccn(-c2cccc3ncccc23)c1 [Example 6, 3-Guanidinocarbonyl-1-(quinol-5-yl)-1H-pyrrole]",260 °C,44 nM
"Cc1cn(-c2cccnc2)cc1C(=O)NC(=N)N [Example 27, N-(4-Methyl-1-pyridin-3-yl-1H-pyrrole-3-carbonyl)-guanidine]",,0.6 nM
"Cc1cn(-c2cccc3ncccc23)cc1C(=O)NC(=N)N.Cl [Example 13, 3-Guanidinocarbonyl-4-methyl-1-(quinolin-5-yl)-1H-pyrrole hydrochloride]",240 °C,0.1 nM
"Cc1cn(-c2ccnc3cc(Cl)ccc23)cc1C(=O)N=C(N)N [Example 18, N-[1-(7-Chloro-quinolin-4-yl)-4-methyl-1H-pyrrole-3-carbonyl]-guanidine trifluoroacetate]",,1.6 nM

SMILES,melting point,IC50 (NHE-1 subtype)
"Cc1cn(-c2ncccn2)cc1C(=O)NC(=N)N [Example 25, N-(4-Methyl-1-pyrimidin-2-yl-1H-pyrrole-3-carbonyl)-guanidine]",208.5 °C,
"Cc1cn(-c2ccnc3ccccc23)cc1C(=O)NC(=N)N [Example 9, 3-Guanidinocarbonyl-4-methyl-1-(quinol-4-yl)-1H-pyrrole]",215 °C,0.25 nM
"CC(=O)O.Cc1cn(-c2cnc3ccccc3c2)cc1C(=O)NC(=N)N [Example 30, N-(4-Methyl-1-quinolin-3-yl-1H-pyrrole-3-carbonyl)-guanidine hydrogenacetate]",279.5 °C,17 nM
"N=C(N)NC(=O)c1cn(-c2nccc3ccccc23)cc1C(F)(F)F [Example 15, 4-Trifluoromethyl-3-guanidinocarbonyl-1-(isoquinolin-1-yl)-1H-pyrrole hydrochloride]",,2.6 nM
"Cc1cn(-c2ccnc3ccc(F)cc23)cc1C(=O)N=C(N)N [Example 20, N-[1-(6-Fluoro-quinolin-4-yl)-4-methyl-1H-pyrrole-3-carbonyl]-guanidine trifluoroacetate]",,0.8 nM
"Cc1c(C(=O)NC(=N)N)ccn1-c1ccc2ccccc2n1 [Example 4, 3-Guanidinocarbonyl-2-methyl-1-(quinol-2-yl)-1H-pyrrole hydrochloride]",,96 nM
"Cc1c(C(=O)N=C(N)N)ccn1-c1ccnc2ccccc12 [Example 3, 3-Guanidinocarbonyl-2-methyl-1-(quinol-4-yl)-1H-pyrrole dihydrochloride]",,67 nM
"N=C(N)NC(=O)c1ccn(-c2cccc3cccnc23)c1 [Example 7, 3-Guanidinocarbonyl-1-(quinol-8-yl)-1H-pyrrole]",155 °C,90 nM
"NC(N)=NC(=O)c1ccn(-c2ccnc3c(F)cccc23)c1 [Example 23, N-[1-(8-Fluoro-quinolin-4-yl)-1H-pyrrole-3-carbonyl]-guanidinetrifluoroacetate]",,97.7 nM
"NC(N)=NC(=O)c1ccn(-c2ccnc3cc(Cl)ccc23)c1 [Example 19, N-[1-(7-Chloro-quinolin-4-yl)-1H-pyrrole-3-carbonyl]-guanidinetrifluoracetate]",,42.9 nM
"Cc1cn(-c2nccc3ccccc23)cc1C(=O)NC(=N)N.Cl [Example 10, 3-Guanidinocarbonyl-1-(isoquinol-1-yl)4-methyl-1H-pyrrole hydrochloride]",247 °C,0.16 nM
"NC(N)=NC(=O)c1ccn(-c2nccc3ccccc23)c1 [Example 5, 3-Guanidinocarbonyl-1-(isoquinol-1-yl)-1H-pyrrole hydrochloride]",,51 nM
"CC(=O)O.Cc1cn(-c2ccc3ccccc3n2)cc1C(=O)NC(=N)N [Example 29, N-(4-Methyl-1-quinolin-2-yl-1H-pyrrole-3-carbonyl)-guanidine hydrogenacetate]",264.4 °C,4.3 nM
"Cc1cn(-c2ccccn2)cc1C(=O)NC(=N)N [Example 26, N-(4-Methyl-1-pyridin-2-yl-1H-pyrrole-3-carbonyl)-guanidine]",,3.6 nM
"Cc1cc(-n2ccc(C(=O)N=C(N)N)c2)c2ccccc2n1 [Example 17, N-[1-(2-Methyl-quinolin-4-yl)-1H-pyrrole-3-carbonyl]-guanidinetrifluoroacetate]",,10.7 nM
"Cc1cn(-c2cncnc2)cc1C(=O)NC(=N)N [Example 28, N-(4-Methyl-1-pyrimidin-5-yl-1H-pyrrole-3-carbonyl)-guanidine]",,192 nM
